Test results published in patent US20070110815A1, “Micronised azodicarbonamide, and the preparation and use thereof” (priority 2005, published 2007).

Legend:
[1] = Particle size stability of micronised ADA in capsules on storage; format: physicochemical
Procedure: After having manufactured micronised ADA under the conditions of examples 1 and 2, a size distribution of the ADA crystals was obtained, as illustrated on the appended FIG. 2.
Thereafter the active substance was incorporated into capsules which have been stored for 11 months within a refrigerator at 8° C., in order to determine the stability of ADA according to the standards (International Harmonisation Conference: ICH).
The size of the ADA particles has been determined again at this moment as well as after 3 additional months within a stove at 25° C./60% humidity.

[2] = Particle size analysis by laser diffraction during micronisation; format: physicochemical
Procedure: A thorough fragmentation of dry powder forming each of these batches is carried out, feeding them at a rate of 4 kg/h into a known dry powder disintegration device, for example into a device of the Alpine® 100 AFG Jet Mill model from Hosokawa Micron Group. This device comprises a cylindrical milling chamber with a conical bottom which is made of stainless steel coated with an elastomer. This chamber has a diameter of 100 mm and a volume of 800 cm^3. The particles to disintegrate are introduced into the chamber by an endless screw. Then the particles are projected against each other by compressed air jets from 3 air nozzles having a diameter of 2 mm which run into each other at the same point. The obtained air stream carries then the disintegrated particles at 50 bar towards a turbo-selecting device which is integrated within the milling chamber. In this example this turbo-selecting device has the shape of a squirrel-cage which has adjustable rotational speed of 5000 to 16000 rpm.
This device allows the exit of the particles smaller than a determined size, in this case <5 μm, and repulses into the milling chamber the particles having a greater size. The fine particles (searched size) which leave the milling chamber are collected for example by means of a cyclone.
The sizes of the particles were then analysed. In order to analyse the diameters use was made of a RODOS & RODOS/M dry powder dispersion device (from Sympatec GmbH) and a VIBRI vibratory powder feed tool (from Sympatec GmbH) with a HELOS laser diffraction system (from Sympatec GmbH). The powders analysed were fed at a rate of 35% of the maximum rate. On passing through an air jet, the powder is subjected to shearing forces of around 3.0 bar. Using a vacuum (90-100 mbar) they are then sucked into the path of a HE/NE laser beam. The diffraction of the laser beam by the particles creates a model which is measured and converted by computer into a particle size distribution using software associated with the HELOS system.

[3] = Comparative examination of bioavailability (biurea in blood after force feeding); format: in vivo; conditions: mice, force feeding, 10, 5 and 1.25 mg/kg, 30 minutes after ingestion, suspension in CMC, FIG. 1
Procedure: 54 mice are randomly divided into 9 groups of 6 animals and receive a dose of ADA by force feeding.
The concentration of biurea, the only catabolite of ADA “in vivo” (Concise International Chemical Assessment Document 16; World Health Organisation: Geneva, 1999) in the blood serum (μg/ml) was determined 30 minutes after ingestion by means of a high-pressure liquid chromatography method. This concentration represents a measurement of the bioavailability of ADA in the organism.
Analysis of the plasma samples was carried out by high-pressure liquid chromatography, followed by mass spectrometry, in accordance with the standards of the “Food and Drug (USA) Administration May 2001: Guidance for Industry: Bioanalytical method validation” (lowest quantification limit (LOQ) of 0.20 μg/ml and linear method up to 20 μg/ml).

rats = experiment: 28-day oral toxicity in rats; format: in vivo; conditions: daily 900, 150 and 25 mg/kg for 28 days, suspension in carboxymethylcellulose
Procedure: (§1) Tests were carried out on rats to which daily doses of 900, 150 and 25 mg of ADA according to the invention/kg of body weight were administered orally for 28 days. The ADA was in the form of a micronised powder according to the invention in suspension in carboxymethylcellulose. Likewise an identical test was carried out on dogs at daily doses for 28 days of 400, 100 and 25 mg of ADA according to the invention/kg of body weight.

dogs = experiment: 28-day oral toxicity in dogs; format: in vivo
Procedure: as §1
On the dogs that received 400 mg/kg/day for 28 days, a histological examination was also carried out with dissection of the kidneys.

healthy male volunteers = experiment: Examination of toxicity on human beings (urine examination by flow cytometry); format: in vivo; conditions: capsules, seven days, up to 6 g per day, limit of detection 2 μm
Procedure: “ESB free” gelatine-coated capsules containing a composition as described in example 4 were administered for seven days to healthy male volunteers at a dose ranging up to 6 g per day (single dose of 150 to 6,000 mg and repeated doses of 300 to 2,400 mg).
A urine examination was carried out using flow cytometry (limit of detection 2 μm).

[4] = system: reactivity of the respiratory tracts; experiment: Reactivity of respiratory tracts in ovalbumin-sensitised rats; format: in vivo; conditions: sensitised Brown Norway rats, force feeding twice a day 125 and 250 mg/kg, day -1 to day 20, all doses of methacholine
Procedure: At day 0, Brown Norway rats (200-250 g) were sensitised by intraperitoneal administration (1 ml/rat) of ovalbumin (1 mg/ml) mixed with aluminium hydroxide (100 mg/ml).
In this experiment, micronised ADA according to the invention is administered to rats by force feeding in the form of a suspension in poloxamer 188. The administration takes place twice a day in doses of 125 and 250 mg/kg, from day −1 up to day 20.

[5] = water and organic solvents; cited from earlier work
[6] = oral administration; cited from earlier work
[7] = Test date Aug. 7, 2005, 3 additional months at 25° C./60% humidity
[8] = Test date Jun. 20, 2004, after manufacture
[9] = Test date May 7, 2005, capsules stored 11 months in refrigerator at 8° C.
[10] = End of micronisation, listed as A
[11] = Middle of micronisation, listed as A
[12] = Start of micronisation, listed as A
[13] = End of micronisation, listed as C
[14] = Middle of micronisation, listed as C
[15] = Start of micronisation, listed as C
[16] = End of micronisation, listed as B
[17] = Middle of micronisation, listed as B
[18] = Start of micronisation, listed as B

NC(=O)N=NC(N)=O [Batch K9K, azodicarbonamide]
Particle sizes D10 [1, 7]: 0.74 μm
Particle sizes D50 [1, 7]: 1.93 μm
Particle sizes D10 [1, 8]: 0.59 μm
Particle sizes D50 [1, 8]: 1.56 μm
Particle sizes D10 [1, 9]: 0.69 μm
Particle sizes D50 [1, 9]: 1.74 μm

NC(=O)N=NC(N)=O [Batch K9L, azodicarbonamide]
Particle sizes D10 [1, 7]: 0.76 μm
Particle sizes D50 [1, 7]: 2.08 μm
Particle sizes D10 [1, 8]: 0.57 μm
Particle sizes D50 [1, 8]: 1.58 μm
Particle sizes D10 [1, 9]: 0.72 μm
Particle sizes D50 [1, 9]: 1.88 μm

NC(=O)N=NC(N)=O [Batch A, azodicarbonamide]
Granulometry of particles during micronisation d10 [2, 10]: 0.56 μm
Granulometry of particles during micronisation d50 [2, 10]: 1.51 μm
Granulometry of particles during micronisation d90 [2, 10]: 3.50 μm
Granulometry of particles during micronisation d10 [2, 11]: 0.56 μm
Granulometry of particles during micronisation d50 [2, 11]: 1.53 μm
Granulometry of particles during micronisation d90 [2, 11]: 3.55 μm
Granulometry of particles during micronisation d10 [2, 12]: 0.58 μm
Granulometry of particles during micronisation d50 [2, 12]: 1.61 μm
Granulometry of particles during micronisation d90 [2, 12]: 3.78 μm

NC(=O)N=NC(N)=O [Batch C, azodicarbonamide]
Granulometry of particles during micronisation d10 [2, 13]: 0.57 μm
Granulometry of particles during micronisation d50 [2, 13]: 1.58 μm
Granulometry of particles during micronisation d90 [2, 13]: 3.85 μm
Granulometry of particles during micronisation d10 [2, 14]: 0.57 μm
Granulometry of particles during micronisation d50 [2, 14]: 1.56 μm
Granulometry of particles during micronisation d90 [2, 14]: 3.69 μm
Granulometry of particles during micronisation d10 [2, 15]: 0.56 μm
Granulometry of particles during micronisation d50 [2, 15]: 1.47 μm
Granulometry of particles during micronisation d90 [2, 15]: 3.43 μm

NC(=O)N=NC(N)=O [azodicarbonamide]
Stability of particle size on storage ([1]; no additive, 11 months 8° C. plus 3 months 25° C./60% humidity, FIG. 3): stability of ADA according to the invention clearly results
Bioavailability of ADA in the blood (concentration of biurea) [3]: appreciably better than the non-micronised ADA
Bioavailability of ADA in the blood (concentration of biurea) ([3]; listed as ADA according to the invention): even better bioavailability than completely dissolved ADA
Adverse effect (rats): In neither of the two tests was any adverse effect observed
Biurea crystals in kidneys (histological examination) (dogs; 400 mg/kg/day for 28 days): no biurea crystals were observed
Adverse effect (dogs; oral, daily 400, 100 and 25 mg/kg for 28 days): In neither of the two tests was any adverse effect observed
Kidney stones or cylinders in urine (healthy male volunteers): No kidney stones or cylinders were observed

NC(=O)N=NC(N)=O [ADA, Azodicarbonamide]
Inhibition of the increase in reactivity of the respiratory tracts caused by antigen attack [4]: significant inhibition
Solubility [5]: not very soluble in water or in the majority of organic solvents

NC(=O)N=NC(N)=O [ADA as commercially available, azodicarbonamide]
Formation of biurea crystals in the urine [6]: the formation of biurea crystals is quickly observed in the urine

NC(=O)N=NC(N)=O [Batch K9J, azodicarbonamide]
Particle sizes D10 [1, 7]: 0.76 μm
Particle sizes D50 [1, 7]: 2.05 μm
Particle sizes D10 [1, 8]: 0.56 μm
Particle sizes D50 [1, 8]: 1.51 μm
Particle sizes D10 [1, 9]: 0.72 μm
Particle sizes D50 [1, 9]: 1.86 μm

NC(=O)N=NC(N)=O [Batch B, azodicarbonamide]
Granulometry of particles during micronisation d10 [2, 16]: 0.59 μm
Granulometry of particles during micronisation d50 [2, 16]: 1.56 μm
Granulometry of particles during micronisation d90 [2, 16]: 3.68 μm
Granulometry of particles during micronisation d10 [2, 17]: 0.58 μm
Granulometry of particles during micronisation d50 [2, 17]: 1.59 μm
Granulometry of particles during micronisation d90 [2, 17]: 3.88 μm
Granulometry of particles during micronisation d10 [2, 18]: 0.58 μm
Granulometry of particles during micronisation d50 [2, 18]: 1.58 μm
Granulometry of particles during micronisation d90 [2, 18]: 3.71 μm
